From ChEMBL document CHEMBL1141071, “Carbonic anhydrase inhibitors: stacking with Phe131 determines active site binding region of inhibitors as exemplified by the X-ray crystal structure of a membrane-impermeant antitumor sulfonamide complexed with isozyme II” (J Med Chem, 2005) come the findings set out here.

For this assay, the target named is Carbonic anhydrase 9 (Homo sapiens, UniProt Q16790).

Description: Inhibition of catalytic domain of human recombinant carbonic anhydrase IX

Take `Cc1ccc(-c2cc(C(F)(F)F)nn2-c2ccc(S(N)(=O)=O)cc2)cc1` [CELECOXIB]: the Ki was 16 nM.

What is called Ki is the dissociation constant of the complex between target and ligand, obtained from inhibition or displacement.
